The subject of assay [1] is clinically isolated HIV strain L. The assay is described as follows: Antiviral spectrum, cellular assay (fold resistance), strain L. It is filed as cell-based. The conditions noted are these: FR=EC50(mutant strain)/EC50(HIV-1 strain LAI). The method, then:
(§1) HIV- or mock-infected MT4 cells were incubated for five days in the presence of various concentrations of the inhibitor. At the end of the incubation period, all HIV-infected cells have been killed by the replicating virus in the control cultures in the absence of any inhibitor. Cell viability is measured by measuring the concentration of MTT, a yellow, water soluble tetrazolium dye that is converted to a purple, water insoluble formazan in the mitochondria of living cells only. Upon solubilization of the resulting formazan crystals with isopropanol, the absorbance of the solution is monitored at 540 nm. The values correlate directly to the number of living cells remaining in the culture at the completion of the five day incubation. The inhibitory activity of the compound was monitored on the virus-infected cells and was expressed as EC50 and EC90. These values represent the amount of the compound required to protect 50% and 90%, respectively, of the cells from the cytopathogenic effect of the virus. The toxicity of the compound was measured on the mock-infected cells and was expressed as CC50, which represents the concentration of compound required to inhibit the growth of the cells by 50%. The selectivity index (SI) (ratio CC50/EC50) is an indication of the selectivity of the anti-HIV activity of the inhibitor.
(§2) Because of the increasing emergence of drug resistant HIV strains, the present compounds were tested for their potency against clinically isolated HIV strains harboring several mutations. These mutations are associated with resistance to protease inhibitors and result in viruses that show various degrees of phenotypic cross-resistance to the currently commercially available drugs such as for instance saquinavir, ritonavir, nelfinavir, indinavir and amprenavir.
(§3) As a measure of the broad spectrum activity of the present compounds, the fold resistance (FR) defined as FR=EC50(mutant strain)/EC50(HIV-1 strain LAI).

Assay [2] has as its system clinically isolated HIV strain E. As to the kind of experiment: Antiviral spectrum, cellular assay (fold resistance), strain E. The conditions noted are these: FR=EC50(mutant strain)/EC50(HIV-1 strain LAI). It is filed as cell-based. The method, then: as §1, §2, §3
Assay [3] concerns virus strain S (R13080). As to the kind of experiment: microbe, parasite or virus in culture. It is filed as cell-based, HIV. Conditions: FR=EC50(mutant strain)/EC50(HIV-1 strain LAI); strain S. In outline: (§4)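 MT4 cells, HIV- or mock-infected, were cultured five days with a range of inhibitor concentrations, and viability was then read by MTT conversion to formazan (isopropanol-solubilized, A540 nm). EC50/EC90 are the concentrations protecting 50%/90% of infected cells from viral cytopathic effect. Fold resistance = EC50(mutant strain)/EC50(HIV-1 LAI).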

The test system of assay [4] is virus strain F (R13025). The assay is described as follows: microbe, parasite or virus in culture. The class given is cell-based, HIV. Conditions: FR=EC50(mutant strain)/EC50(HIV-1 strain LAI); strain F. In outline: as §4
The subject of assay [5] is clinically isolated HIV strain C. The assay is described as follows: Antiviral spectrum, cellular assay (fold resistance), strain C. It is filed as cell-based. Conditions: FR=EC50(mutant strain)/EC50(HIV-1 strain LAI). The protocol:
as §1, §2, §3

The test system of assay [6] is clinically isolated HIV strain N. The assay is described as follows: Antiviral spectrum, cellular assay (fold resistance), strain N. The class given is cell-based. Conditions: FR=EC50(mutant strain)/EC50(HIV-1 strain LAI). The method, then: as §1, §2, §3
The test system of assay [7] is clinically isolated HIV strain R. As to the kind of experiment: Antiviral spectrum, cellular assay (fold resistance), strain R. It is filed as cell-based. The conditions noted are these: FR=EC50(mutant strain)/EC50(HIV-1 strain LAI). The method, then: as §1, §2, §3
In assay [8] the test system is clinically isolated HIV strain G. As to the kind of experiment: Antiviral spectrum, cellular assay (fold resistance), strain G. The class given is cell-based. The conditions noted are these: FR=EC50(mutant strain)/EC50(HIV-1 strain LAI). The method, then:
as §1, §2, §3

In assay [9] the test system is clinically isolated HIV strain H. The class given is cell-based. The conditions noted are these: FR=EC50(mutant strain)/EC50(HIV-1 strain LAI). In outline:
as §4

The test system of assay [10] is clinically isolated HIV strain J. It is filed as cell-based. The conditions noted are these: FR=EC50(mutant strain)/EC50(HIV-1 strain LAI). Summed up: as §4
Assay [11] deals with clinically isolated HIV strain I. It is filed as cell-based. The conditions noted are these: FR=EC50(mutant strain)/EC50(HIV-1 strain LAI). In outline: as §4
The test system of assay [12] is clinically isolated HIV strain T. The class given is cell-based. The conditions noted are these: FR=EC50(mutant strain)/EC50(HIV-1 strain LAI). In outline: as §4
For assay [13], the system named is clinically isolated HIV strain O. It is filed as cell-based. Conditions: FR=EC50(mutant strain)/EC50(HIV-1 strain LAI). Summed up:
as §4

The test system of assay [14] is clinically isolated HIV strain P. As to the kind of experiment: Antiviral spectrum, cellular assay (fold resistance), strain P. The class given is cell-based. The conditions noted are these: FR=EC50(mutant strain)/EC50(HIV-1 strain LAI). The method, then:
as §1, §2, §3

For assay [15], the system named is clinically isolated HIV strain K. As to the kind of experiment: Antiviral spectrum, cellular assay (fold resistance), strain K. The class given is cell-based. Conditions: FR=EC50(mutant strain)/EC50(HIV-1 strain LAI). The method, then:
as §1, §2, §3

In assay [16] the test system is clinically isolated HIV strain A. The assay is described as follows: Antiviral spectrum, cellular assay (fold resistance), strain A. The conditions noted are these: FR=EC50(mutant strain)/EC50(HIV-1 strain LAI). The class given is cell-based. The protocol:
as §1, §2, §3

The subject of assay [17] is clinically isolated HIV strain M. The assay is described as follows: Antiviral spectrum, cellular assay (fold resistance), strain M. It is filed as cell-based. The conditions noted are these: FR=EC50(mutant strain)/EC50(HIV-1 strain LAI). The method, then:
as §1, §2, §3

For assay [18], the system named is clinically isolated HIV strain Q. The assay is described as follows: Antiviral spectrum, cellular assay (fold resistance), strain Q. The class given is cell-based. The conditions noted are these: FR=EC50(mutant strain)/EC50(HIV-1 strain LAI). The protocol: as §1, §2, §3
Assay [19] has as its system clinically isolated HIV strain D. As to the kind of experiment: Antiviral spectrum, cellular assay (fold resistance), strain D. The class given is cell-based. Conditions: FR=EC50(mutant strain)/EC50(HIV-1 strain LAI). The protocol:
as §1, §2, §3

In assay [20] the test system is clinically isolated HIV strain B. The assay is described as follows: Antiviral spectrum, cellular assay (fold resistance), strain B. The class given is cell-based. Conditions: FR=EC50(mutant strain)/EC50(HIV-1 strain LAI). The protocol: as §1, §2, §3

The structures appear in SMILES notation.

Turning to `CC(C)CN(C[C@@H](O)[C@H](Cc1ccccc1)NC(=O)O[C@H]1CO[C@H]2OCC[C@H]21)S(=O)(=O)c1ccc2nc(NC(=O)CN3CCCC3)sc2c1.Cl` [Compound 14], the “fold resistance (FR), strain L” value in assay [1] is 0.1. In addition, the “fold resistance (FR), strain E” value in assay [2] was 0.3. Further, the “fold resistance (FR), strain S” value in assay [3] came to 0.7. Besides, the “fold resistance (FR), strain F” value in assay [4] was 0.4. Also, the “fold resistance (FR), strain C” value in assay [5] is recorded as 0.2. Also, the “fold resistance (FR), strain N” value in assay [6] was 0.9. The “fold resistance (FR), strain R” value in [7] is 0.2. The “fold resistance (FR), strain G” value in assay [8] is given as 0.2. Also, the “fold resistance (FR), strain H” value in [9] is reported as 0.5. For the same compound, in assay [10], the “fold resistance (FR), strain J” value is recorded as 0.3. For the same compound, the “fold resistance (FR), strain I” value in assay [11] was determined as 0.4. Further, the “fold resistance (FR), strain T” value in assay [12] turned out to be 5.9. In addition, in [13], the “fold resistance (FR), strain O” value worked out at 0.3. Also, the “fold resistance (FR), strain P” value in assay [14] is 0.2. In addition, the “fold resistance (FR), strain K” value in [15] came to 0.2. The “fold resistance (FR), strain A” value in assay [16] was 0.2. Moreover, the “fold resistance (FR), strain M” value in assay [17] was determined as 0.2. Besides, in assay [18], the “fold resistance (FR), strain Q” value is 0.3. For the same compound, the “fold resistance (FR), strain D” value in [19] is on record as 0.2. For the same compound, in assay [20], the “fold resistance (FR), strain B” value was found to be 0.2.

In the case of `CC(C)CN(C[C@@H](O)[C@H](Cc1ccccc1)NC(=O)O[C@H]1CO[C@H]2OCC[C@H]21)S(=O)(=O)c1ccc2nc(NC(=O)CN3CCCC3)sc2c1.O=C(O)C(=O)O` [Compound 15], the “fold resistance (FR), strain L” value in [1] is given as 0.1. The “fold resistance (FR), strain E” value in assay [2] came out at 0.3. Besides, the “fold resistance (FR), strain S” value in [3] is 0.8. Besides, the “fold resistance (FR), strain F” value in [4] is recorded as 0.5. The “fold resistance (FR), strain C” value in assay [5] is listed as 0.3. The “fold resistance (FR), strain N” value in assay [6] is reported as 0.4. The “fold resistance (FR), strain R” value in assay [7] amounted to 0.2. The “fold resistance (FR), strain G” value in [8] came out at 0.3. Moreover, the “fold resistance (FR), strain H” value in assay [9] was 0.5. In assay [10], the “fold resistance (FR), strain J” value came to 0.3. The “fold resistance (FR), strain I” value in assay [11] is given as 0.3. For the same compound, the “fold resistance (FR), strain T” value in [12] worked out at 7.2. Further, the “fold resistance (FR), strain O” value in assay [13] worked out at 0.2. Besides, the “fold resistance (FR), strain P” value in assay [14] is listed as 0.1. Further, the “fold resistance (FR), strain K” value in [15] came out at 0.3. The “fold resistance (FR), strain A” value in assay [16] came out at 0.3. The “fold resistance (FR), strain M” value in assay [17] is listed as 0.2. Also, the “fold resistance (FR), strain Q” value in [18] is listed as 0.2. For the same compound, in assay [19], the “fold resistance (FR), strain D” value was determined as 0.3. The “fold resistance (FR), strain B” value in assay [20] is given as 0.2.

Turning to `CC(C)CN(C[C@@H](O)[C@H](Cc1ccccc1)NC(=O)O[C@H]1CCOC1)S(=O)(=O)c1ccc2nc(NC(=O)CN(C)C)sc2c1` [Compound 34], the “fold resistance (FR), strain L” value in [1] is on record as 1.2. Moreover, in assay [2], the “fold resistance (FR), strain E” value is given as 4.5. In addition, in assay [3], the “fold resistance (FR), strain S” value worked out at 99.6. Besides, the “fold resistance (FR), strain F” value in assay [4] is 61.9. The “fold resistance (FR), strain C” value in [5] is listed as 5.5. Also, the “fold resistance (FR), strain N” value in [6] is 4.0. In addition, in assay [7], the “fold resistance (FR), strain R” value is recorded as 1.1. Moreover, the “fold resistance (FR), strain G” value in [8] came to 3.2. The “fold resistance (FR), strain H” value in [9] is listed as 11.4. Also, in [10], the “fold resistance (FR), strain J” value amounted to 5.8. Besides, the “fold resistance (FR), strain I” value in [11] is 5.6. Further, the “fold resistance (FR), strain T” value in assay [12] worked out at 802.7. Also, the “fold resistance (FR), strain O” value in assay [13] stood at 5.0. In addition, the “fold resistance (FR), strain P” value in [14] was found to be 0.9. Besides, the “fold resistance (FR), strain K” value in assay [15] is 1.3. In addition, in assay [16], the “fold resistance (FR), strain A” value was found to be 5.0. In assay [17], the “fold resistance (FR), strain M” value was 1.2. Moreover, in [18], the “fold resistance (FR), strain Q” value came out at 4.0. For the same compound, in assay [19], the “fold resistance (FR), strain D” value is reported as 6.6. For the same compound, in assay [20], the “fold resistance (FR), strain B” value is on record as 5.9.

The values are drawn from US7659404B2, “Broad spectrum 2-(substituted-amino)-benzothiazole sulfonamide HIV protease inhibitors” (Tibotec Pharmaceuticals Ltd., priority 2001, dated 2010).
